The target of test [1] is T1, NSD2 (Homo sapiens, UniProt O96028).
T1 sequence (O96028 1-1365): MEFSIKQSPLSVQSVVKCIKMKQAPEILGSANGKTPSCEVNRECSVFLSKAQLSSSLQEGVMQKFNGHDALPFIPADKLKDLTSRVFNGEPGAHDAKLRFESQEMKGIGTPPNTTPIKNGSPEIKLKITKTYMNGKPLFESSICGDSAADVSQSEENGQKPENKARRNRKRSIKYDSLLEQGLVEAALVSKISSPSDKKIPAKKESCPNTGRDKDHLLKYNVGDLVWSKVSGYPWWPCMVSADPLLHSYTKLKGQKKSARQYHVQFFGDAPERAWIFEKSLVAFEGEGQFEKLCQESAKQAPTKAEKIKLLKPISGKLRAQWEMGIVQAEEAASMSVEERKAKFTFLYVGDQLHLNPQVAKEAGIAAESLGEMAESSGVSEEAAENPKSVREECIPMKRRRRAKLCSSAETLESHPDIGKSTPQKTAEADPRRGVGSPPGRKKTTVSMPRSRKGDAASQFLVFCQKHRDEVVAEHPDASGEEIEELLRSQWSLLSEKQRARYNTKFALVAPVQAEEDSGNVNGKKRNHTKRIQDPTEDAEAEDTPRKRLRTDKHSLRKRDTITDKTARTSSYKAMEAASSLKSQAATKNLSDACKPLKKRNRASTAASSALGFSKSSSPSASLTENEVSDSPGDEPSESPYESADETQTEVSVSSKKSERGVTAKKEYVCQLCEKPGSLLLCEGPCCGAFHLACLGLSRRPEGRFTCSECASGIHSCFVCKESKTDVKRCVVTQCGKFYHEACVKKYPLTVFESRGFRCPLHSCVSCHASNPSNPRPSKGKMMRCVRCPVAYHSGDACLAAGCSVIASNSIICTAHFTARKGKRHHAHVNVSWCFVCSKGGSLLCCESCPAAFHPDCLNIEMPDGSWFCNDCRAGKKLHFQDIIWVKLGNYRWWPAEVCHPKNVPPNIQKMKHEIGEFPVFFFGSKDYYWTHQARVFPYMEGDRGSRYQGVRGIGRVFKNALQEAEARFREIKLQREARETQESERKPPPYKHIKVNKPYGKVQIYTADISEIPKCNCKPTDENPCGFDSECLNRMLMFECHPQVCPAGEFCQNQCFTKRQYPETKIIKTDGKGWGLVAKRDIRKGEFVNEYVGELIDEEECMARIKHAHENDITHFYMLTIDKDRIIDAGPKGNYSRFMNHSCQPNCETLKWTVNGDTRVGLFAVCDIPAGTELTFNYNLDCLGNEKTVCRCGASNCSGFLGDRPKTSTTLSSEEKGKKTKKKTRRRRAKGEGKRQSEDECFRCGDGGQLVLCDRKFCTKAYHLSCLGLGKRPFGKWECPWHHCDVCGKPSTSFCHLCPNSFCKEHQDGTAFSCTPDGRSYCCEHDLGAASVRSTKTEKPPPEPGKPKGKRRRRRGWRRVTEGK
The test is described as follows: Compound screening: NSD2 degradation by immunoblotting in VCaP cells. The following applies: 24 h; for Dmax at 2 µM: VCaP; for % Degradation: 2 μM, VCaP cells, immunoblotting. (In general: Immunoblotting shows a protein as a band on a membrane.)
Method: After treatment, the cultured cells were collected and rinsed with phosphate-buffered saline (PBS) in room temperature. The cells were treated with RIPA buffers (ThermoFisher Scientific) supplemented with Halt Protease and Phosphatase Inhibitor Cocktail (ThermoFisher Scientific). After sonication and centrifugation, the total amount of protein in the cell lysates was measured by Pierce Bovine Serum Albumin Standard Pre-Diluted Set (ThermoFisher Scientific). […] After incubated with HRP-conjugated secondary antibodies, the membranes were developed with ECL Prime Western Blotting Detection Reagent (cytiva) and imaged on Odyssey Fc Imager (LiCOR Biosciences).
Western blot was then performed as previously described to detect NSD2 degradation.

The target of test [2] is T2, NSD2 (Homo sapiens, UniProt O96028).
T2 sequence (O96028 211-350 limits assumed): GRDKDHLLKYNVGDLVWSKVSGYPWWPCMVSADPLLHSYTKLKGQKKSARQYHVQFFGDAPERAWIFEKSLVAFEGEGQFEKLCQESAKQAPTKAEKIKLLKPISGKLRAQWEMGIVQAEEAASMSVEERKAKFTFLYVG
The experiment in a line: Validation of mechanism of action: pretreatment rescue of LLC0424-mediated NSD2 degradation. In kind it is cell-based. The following applies: for effect of pretreatment on NSD2 protein reduction induced by LLC0424: RPMI-8402 cells, 2 μM LLC0424; for effect of pretreatment on LLC0424-mediated NSD2 degradation: RPMI-8402 and SEM cells, pretreated 2 h, then 2 μM LLC0424 for 12 h.

The target in test [3] is T3, NSD2 (both long and short isoforms) (Homo sapiens, UniProt O96028).
T3 sequence (O96028 211-350 limits assumed): T2 sequence (O96028 211-350 limits assumed)
The experiment in a line: NSD2 degradation by immunoblotting in ALL cell lines RPMI-8402 and SEM (NSD2 E1099K). In kind it is cell-based. Particulars: RPMI-8402 and SEM cells; 0.5 and 2 μM for 24 h or 2 μM for 12 and 24 h. Here is the method:
As previous studies have shown that ALL cell lines with NSD2 gain-of-function mutation are more dependent on NSD2 regarding H3K36me2 level and cell proliferation,[7],[8] we further characterized LLC0424 in ALL cell lines with NSD2 E1099K gain-of-function mutation (RPMI-8402 and SEM). We first treated these cells with LLC0424 with different concentrations for 24 h. […] In addition, we compared the degradation efficiency of LLC0424 with the two previously published NSD2 degraders 6 and 7 at different concentrations and time points.
After treatment, the cultured cells were collected and rinsed with phosphate-buffered saline (PBS) in room temperature. The cells were treated with RIPA buffers (ThermoFisher Scientific) supplemented with Halt Protease and Phosphatase Inhibitor Cocktail (ThermoFisher Scientific). After sonication and centrifugation, the total amount of protein in the cell lysates was measured by Pierce Bovine Serum Albumin Standard Pre-Diluted Set (ThermoFisher Scientific). After mixed with LDS-sample buffer (Invitrogen) supplemented with Sample Reducing Agent (Invitrogen) and heated in 70 °C for 10 min, equal amount of protein was loaded into NuPAGE 4–12%, Bis-Tris Protein Gel (ThermoFisher Scientific) or NuPAGE 3–8%, Tris-Acetate Protein Gel (ThermoFisher Scientific), and blotted with primary antibodies. After incubated with HRP-conjugated secondary antibodies, the membranes were developed with ECL Prime Western Blotting Detection Reagent (cytiva) and imaged on Odyssey Fc Imager (LiCOR Biosciences).

[4] abbreviates: read-out: 2.0 μM Degradation % (VCaP).

Read-outs that look alike come from different tables or passages of the source.

`O=C1CCC(N2C(=O)c3ccc(N4CCN(C(=O)c5ccc(NC(=O)c6ccc(CN(C(=O)c7ccc8c(c7)OCC(=O)N8)C7CC7)cc6)cc5)CC4)cc3C2=O)C(=O)N1` (stereo not shown) [10m, N-Cyclopropyl-N-(4-((4-(4-(2-(2,6-dioxopiperidin-3-yl)-1,3-dioxoisoindolin-5-yl)piperazine-1-carbonyl)phenyl)carbamoyl)benzyl)-3-oxo-3,4-dihydro-2H-benzo[b][1,4]oxazine-7-carboxamide]: the Dmax at 2 µM on NSD2 [1] (setting [4]) and at NSD2 [1] (read-out: % Degradation) was 41% in each case.
With `O=C1CCC(N2C(=O)c3ccc(N4CCC(CNC(=O)c5ccc(NC(=O)c6ccc(CN(C(=O)c7ccc8c(c7)OCC(=O)N8)C7CC7)cc6)cc5)CC4)cc3C2=O)C(=O)N1` (stereo not shown) [10n, N-Cyclopropyl-N-(4-((4-(((1-(2-(2,6-dioxopiperidin-3-yl)-1,3-dioxoisoindolin-5-yl)piperidin-4-yl)methyl)carbamoyl)phenyl)carbamoyl)benzyl)-3-oxo-3,4-dihydro-2H-benzo[b][1,4]oxazine-7-carboxamide], the Dmax at 2 µM at NSD2 [1] (setting [4]) and on NSD2 [1] (read-out: % Degradation) was 74% throughout.
For the compound `CN(C(=O)c1ccc(NC(=O)c2ccc(CN(C(=O)c3ccc4c(c3)OCC(=O)N4)C3CC3)cc2)cc1)C1CCN(c2ccc3c(c2)C(=O)N(C2CCC(=O)NC2=O)C3=O)CC1` (stereo not shown) [10o, N-Cyclopropyl-N-(4-((4-((1-(2-(2,6-dioxopiperidin-3-yl)-1,3-dioxoisoindolin-5-yl)piperidin-4-yl)(methyl)carbamoyl)phenyl)carbamoyl)benzyl)-3-oxo-3,4-dihydro-2H-benzo[b][1,4]oxazine-7-carboxamide], the Dmax at 2 µM at NSD2 [1] (setting [4]) and at NSD2 [1] (read-out: % Degradation) was 89% throughout.
Take `CC1(NC(=O)c2ccc(NC(=O)c3ccc(CN(C(=O)c4ccc5c(c4)OCC(=O)N5)C4CC4)cc3)cc2)CCN(c2ccc3c(c2)C(=O)N(C2CCC(=O)NC2=O)C3=O)CC1` (stereo not shown) [10p, N-Cyclopropyl-N-(4-((4-((1-(2-(2,6-dioxopiperidin-3-yl)-1,3-dioxoisoindolin-5-yl)-4-methylpiperidin-4-yl)carbamoyl)phenyl)carbamoyl)benzyl)-3-oxo-3,4-dihydro-2H-benzo[b][1,4]oxazine-7-carboxamide]: the Dmax at 2 µM on NSD2 [1] (setting [4]) and at NSD2 [1] (read-out: % Degradation) was 30% each time.
`O=C1CCC(N2C(=O)c3ccc(N4CCCC(NC(=O)c5ccc(NC(=O)c6ccc(CN(C(=O)c7ccc8c(c7)OCC(=O)N8)C7CC7)cc6)cc5)C4)cc3C2=O)C(=O)N1` (stereo not shown) [10q, N-Cyclopropyl-N-(4-((4-((1-(2-(2,6-dioxopiperidin-3-yl)-1,3-dioxoisoindolin-5-yl)piperidin-3-yl)carbamoyl)phenyl)carbamoyl)benzyl)-3-oxo-3,4-dihydro-2H-benzo[b][1,4]oxazine-7-carboxamide]: the Dmax at 2 µM at NSD2 [1] (setting [4]) and on NSD2 [1] (read-out: % Degradation) was 3% each time.
On to `NS(=O)(=O)OC[C@@H]1C[C@@H](n2ccc3c(N[C@H]4CCc5ccccc54)ncnc32)C[C@@H]1O` [MLN4924], for which, on NSD2 [2], the “effect of pretreatment on NSD2 protein reduction induced by LLC0424” value was “rescued the NSD2 protein reduction induced by LLC0424”.
Take `Cc1ncsc1-c1ccc(CNC(=O)[C@@H]2C[C@@H](O)CN2C(=O)[C@H](C(C)C)N2Cc3ccccc3C2=O)cc1` [VL-285]: the “effect of pretreatment on LLC0424-mediated NSD2 degradation” value on NSD2 [2] is listed as “not”.
Take `CC(C)C[C@H](NC(=O)[C@H](Cc1ccccc1)NC(=O)c1cnccn1)B(O)O` [bortezomib]: the “effect of pretreatment on NSD2 protein reduction induced by LLC0424” value at NSD2 [2] is recorded as “rescued the NSD2 protein reduction induced by LLC0424”.
Turning to `O=C(CNc1cccc2c1C(=O)N(C1CCC(=O)NC1=O)C2=O)NCCCOc1ccc(NC(=O)c2ccc(CN(C(=O)c3ccc4c(c3)OCC(=O)N4)C3CC3)cc2)nc1` (stereo not shown) [compound 6, reference compound], the “NSD2 degradation, comparison of degraders” value in test [3] is recorded as “much less active”. Further, the “% Degradation” value at NSD2 [1] was 11%.
Take `O=C1CCC(N2C(=O)c3cccc(NCCNC(=O)c4ccc(NC(=O)c5ccc(CN(C(=O)c6ccc7c(c6)OCC(=O)N7)C6CC6)cc5)cc4)c3C2=O)C(=O)N1` (stereo not shown) [compound 10a, N-Cyclopropyl-N-(4-((4-((2-((2-(2,6-dioxopiperidin-3-yl)-1,3-dioxoisoindolin-4-yl)amino)ethyl)carbamoyl)phenyl)carbamoyl)benzyl)-3-oxo-3,4-dihydro-2H-benzo[b][1,4]oxazine-7-carboxamide]: the Dmax at 2 µM at NSD2 [1] (setting [4]) and on NSD2 [1] (read-out: % Degradation) was 17% in each case.
On to `O=C1CCC(N2C(=O)c3cccc(NCCCCNC(=O)c4ccc(NC(=O)c5ccc(CN(C(=O)c6ccc7c(c6)OCC(=O)N7)C6CC6)cc5)cc4)c3C2=O)C(=O)N1` (stereo not shown) [compound 10b, N-Cyclopropyl-N-(4-((4-((4-((2-(2,6-dioxopiperidin-3-yl)-1,3-dioxoisoindolin-4-yl)amino)butyl)carbamoyl)phenyl)carbamoyl)benzyl)-3-oxo-3,4-dihydro-2H-benzo[b][1,4]oxazine-7-carboxamide], for which the Dmax at 2 µM at NSD2 [1] (setting [4]) and on NSD2 [1] (read-out: % Degradation) was 25% each time.
`O=C1CCC(N2C(=O)c3ccc(NCCCNC(=O)c4ccc(NC(=O)c5ccc(CN(C(=O)c6ccc7c(c6)OCC(=O)N7)C6CC6)cc5)cc4)cc3C2=O)C(=O)N1` (stereo not shown) [compound 10f, N-Cyclopropyl-N-(4-((4-((3-((2-(2,6-dioxopiperidin-3-yl)-1,3-dioxoisoindolin-5-yl)amino)propyl)carbamoyl)phenyl)carbamoyl)benzyl)-3-oxo-3,4-dihydro-2H-benzo[b][1,4]oxazine-7-carboxamide]: the Dmax at 2 µM at NSD2 [1] (setting [4]) and at NSD2 [1] (read-out: % Degradation) was 94% in each case.
With `O=C1CCC(N2C(=O)c3ccc(NC4CCN(C(=O)c5ccc(NC(=O)c6ccc(CN(C(=O)c7ccc8c(c7)OCC(=O)N8)C7CC7)cc6)cc5)CC4)cc3C2=O)C(=O)N1` (stereo not shown) [compound 10k, N-Cyclopropyl-N-(4-((4-(4-((2-(2,6-dioxopiperidin-3-yl)-1,3-dioxoisoindolin-5-yl)amino)piperidine-1-carbonyl)phenyl)carbamoyl)benzyl)-3-oxo-3,4-dihydro-2H-benzo[b][1,4]oxazine-7-carboxamide], at NSD2 [1], the “% Degradation” value is on record as “significant potency loss”. Besides, the Dmax at 2 µM at NSD2 [1] (setting [4]) and at NSD2 [1] (read-out: % Degradation) was 48% in each case.
On to `O=C1CCC(N2C(=O)c3ccccc3C2=O)C(=O)N1` (stereo not shown) [thalidomide], for which, at NSD2 [2], the “effect of pretreatment on LLC0424-mediated NSD2 degradation” value is on record as “reversed the LLC0424-mediated NSD2 degradation”.

Source of the values: article PMC11094793, “Discovery of LLC0424 as a Potent and Selective in Vivo NSD2 PROTAC Degrader” (Journal of Medicinal Chemistry, 2024).
